Consider one compound from publication PMC6940745 (International Journal of Molecular Sciences, 2019).

What is called EC50 is the concentration giving half of the maximal effect. Lower therefore signals higher potency in that assay.

For experiment [1], the target named is T1, MC5R (Homo sapiens, UniProt P33032).
T1 construct: host or cells: CHO-K1
The experiment can be described thus: MC5R activation, cAMP HTRF assay in CHO-K1 cells. Format: cell-based. As for the experimental part:
MCR-activation assays were performed by means of a cAMP HTRF (homogeneous time resolved fluorescence) assay for Gs-coupled receptors (cAMP Gs dynamic kit, Cisbio bioassays, 62AM4PEC). CHO-K1 cells expressing human recombinant MC1 receptor (EuroscreenFast, Gosselies, Belgium) (or MC2R, MC3R, MC4R, MC5R) were grown prior to the test in media without antibiotic. They were detached by gentle flushing with PBS-EDTA (5 mM EDTA), recovered by centrifugation, and resuspended in assay buffer (5 mM KCl, 1.25 mM MgSO4, 124 mM NaCl, 25 mM HEPES, 13.3 mM Glucose, 1.25 mM KH2PO4, 1.45 mM CaCl2, 0.5 g/L BSA, supplemented with 1 mM IBMX). Dose response curves were performed in parallel with the reference compounds. For agonist test (96-well), 12 µL of cells were mixed with 12 µL of the test compound diluted at increasing concentrations in assay buffer, and then incubated for 30 min at room temperature. After addition of the lysis buffer and 1 h incubation, fluorescence signal was measured, according to the manufacturer’s specifications, with the homogeneous time resolved fluorescence (HTRF) kit.
(Time-resolved FRET reads energy transfer from a long-lived donor to a nearby acceptor.)

Experiment [2] addresses T2, OP2R (Homo sapiens, UniProt P41145).
T2 construct: host or cells: CHO-K1 (membrane preparations)
The experiment can be described thus: OP2R (kappa opioid) activation, GTPγS scintillation proximity assay. In kind it is biochemical. Conditions: eight concentrations, 0.01 to 100,000 nM. As for the experimental part: Melatonin (MT1R and MT2R) and opioid receptor (OP1R, OP2R, and OP3R, corresponding to human delta, kappa, and mu opioid receptors) activation assays were performed by means of GTPγS scintillation proximity assays. For agonist testing, membrane preparations from CHO-K1 cells expressing each receptor (EuroscreenFast, Gosselies, Belgium) were mixed with guanosine diphosphate (GDP) (v/v). In parallel, GTPγ[^35S] (PerkinElmer, NEG030X, 0.1 nM final assay concentration) was mixed with PVT-WGA beads (Perkin Elmer, RPNQ001, 0.5 mg/well final assay density) (v/v) just before starting the reaction. The following reagents were then successively added in the wells of an Optiplate (Perkin Elmer): A total of 50 µL of test or reference ligand diluted in assay buffer, 10 µL of assay buffer (20 mM HEPES pH 7.4; 100–200 mM NaCl, 10 µg/mL saponin, MgCl2 at optimized concentration for the specific receptor, 0%–0.1% BSA), 20 µL of the membranes: GDP mix, and 20 µL of the GTPγ[^35S]: Beads mix. The plates were covered with a top seal, mixed on an orbital shaker for 2 min, and then incubated for 1 h at room temperature. Then the plates were centrifuged for 10 min at 2000 rpm, incubated at room temperature for 1 h, and counted for 1 min/well with a PerkinElmer TopCount™ reader.
In general terms: SPA uses beads or plates that emit light when radiolabelled molecules are held near them.

Experiment [3] addresses human MCH2R (Homo sapiens, UniProt Q969V1). The experiment can be described thus: MCH2R activation, Aequorin assay. The settings on record: eight concentrations, 0.01 to 100,000 nM. Format: cell-based. On the procedure:
(§1) Melanin-concentrating hormone receptor (MCHR), endothelin-1 receptor (ETBR), and serotonin-receptor (5-HT2AR) assays were performed by means of Aequorin assays. Recombinant cells co-expressing human MCH1R, MCH2R, ETBR, or 5-HT2AR and mitochondrial apoaequorin (MCH1R, MCH2R and 5-HT2AR cells also co-express recombinant Gα16 protein) (EuroscreenFast, Gosselies, Belgium), grown 18 h prior to the test in media without antibiotics, were detached by gentle flushing with PBS-EDTA (5 mM EDTA), recovered by centrifugation, and resuspended in assay buffer (DMEM/HAM’s F12 with HEPES + 0.1% BSA protease free). Cells were incubated under agitation at room temperature for at least 4 h with Coelenterazine h (Promega, X300X, 0.5 µM final concentration). Dose response curves with the reference compounds were performed before testing the compounds. For agonist testing, 50 µL of cell suspension was injected on 50 µL of test compound or reference agonist diluted in assay buffer and plated in a 96-well plate. The resulting emission of light was recorded using the Hamamatsu Functional Drug Screening System 6000 (FDSS 6000). […] Agonist activity of test compound was expressed as a percentage of the activity of the reference agonist at its EC100 concentration.

Experiment [4] deals with human 5-HT2AR (Homo sapiens, UniProt P28223). The experiment can be described thus: 5-HT2AR activation, Aequorin assay. Format: cell-based. The settings on record: eight concentrations, 0.01 to 100,000 nM. As for the experimental part:
as §1

In experiment [5] the test system is MITF. The experiment can be described thus: MITF protein expression in human skin ex vivo (immunohistochemistry). In kind it is cell-based. Conditions: topical 30, 100 and 200 µM, six days; p < 0.05. On the procedure: Following declaration of Helsinki principles (DoH-Oct2013, World Medical Association, Ferney-Voltaire, France), human skin samples were obtained from elective plastic surgery after informed consent was obtained. For the two experiments shown in Figure 2, Figure 3 and Figure 4, we had one person with an individual topology angle (ITA°) of 18, and one person with an ITA° of 39 [69]. The skin samples were cut in pieces of 8 × 3 mm and cultured up to day 6. Skin samples were cultured in an air–liquid interface in a perforated ring of stainless steel in contact with culture medium (modified Williams’ E medium). The culture medium was renewed every three days (i.e., day 0–3). Compounds were added daily in DMSO at 4 µL volume. At day 6, the skin samples were fixed in formalin, embedded in paraplast, and cut at the microtome for histochemical staining and consequent image analysis. Six skin biopsies were used for each single treatment.
Twelve skin sections from the ex vivo melanogenesis experiment above were immunoassayed with the selected antibodies (TYR, Thermo Scientific #MS-800-P0 (Thermo Scientific, Waltham, MA, USA); TYRP-1, Covance #SIG-38150 (Covance Inc., Princeton, NJ, USA), MITF, Abcam #ab80651 (Abcam plc, Cambridge, UK). The number of positive cells within the epidermis was counted and the value was normalized upon the length of the basal lamina, thus obtaining a score. […]

Molecules are shown by their SMILES. Where a SMILES comes first, the peptide text is derived from it. [ ]: non-standard residue; d: D form. The star is where a group is joined. Bz = O=C(c1ccccc1)*; NPr2 = CCCN(CCC)*

T1 sequence (P33032 whole entry): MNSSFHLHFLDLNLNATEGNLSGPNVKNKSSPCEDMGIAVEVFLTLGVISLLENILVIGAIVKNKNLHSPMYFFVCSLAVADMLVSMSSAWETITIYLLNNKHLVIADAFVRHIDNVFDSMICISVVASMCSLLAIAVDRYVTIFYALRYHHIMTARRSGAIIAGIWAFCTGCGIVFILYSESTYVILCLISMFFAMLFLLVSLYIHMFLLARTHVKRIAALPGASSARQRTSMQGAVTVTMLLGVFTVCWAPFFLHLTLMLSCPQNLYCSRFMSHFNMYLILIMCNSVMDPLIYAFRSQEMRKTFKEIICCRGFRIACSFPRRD
Sequence of human 5-HT2AR (P28223 whole entry): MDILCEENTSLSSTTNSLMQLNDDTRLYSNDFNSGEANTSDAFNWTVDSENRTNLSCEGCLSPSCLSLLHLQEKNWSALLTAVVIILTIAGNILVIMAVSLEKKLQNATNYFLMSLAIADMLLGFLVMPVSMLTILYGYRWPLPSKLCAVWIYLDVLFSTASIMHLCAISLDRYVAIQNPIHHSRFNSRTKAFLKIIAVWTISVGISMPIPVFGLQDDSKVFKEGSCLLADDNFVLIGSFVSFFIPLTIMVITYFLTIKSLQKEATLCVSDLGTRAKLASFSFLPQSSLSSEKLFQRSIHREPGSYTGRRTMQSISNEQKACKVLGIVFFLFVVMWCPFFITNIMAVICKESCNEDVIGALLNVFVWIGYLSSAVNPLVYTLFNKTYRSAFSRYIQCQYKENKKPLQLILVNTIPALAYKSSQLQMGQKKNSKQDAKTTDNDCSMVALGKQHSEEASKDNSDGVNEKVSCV
Sequence of human MCH2R (Q969V1 whole entry): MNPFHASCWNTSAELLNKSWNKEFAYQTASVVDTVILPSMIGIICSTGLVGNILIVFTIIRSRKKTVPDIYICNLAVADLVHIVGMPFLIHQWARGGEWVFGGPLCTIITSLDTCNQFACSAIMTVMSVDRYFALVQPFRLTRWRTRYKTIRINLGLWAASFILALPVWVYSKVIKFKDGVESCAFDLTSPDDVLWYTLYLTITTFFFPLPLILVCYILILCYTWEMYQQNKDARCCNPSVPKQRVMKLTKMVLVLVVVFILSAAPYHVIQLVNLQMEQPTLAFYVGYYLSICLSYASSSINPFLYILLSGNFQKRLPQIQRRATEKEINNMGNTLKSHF
T2 sequence (P41145 whole entry): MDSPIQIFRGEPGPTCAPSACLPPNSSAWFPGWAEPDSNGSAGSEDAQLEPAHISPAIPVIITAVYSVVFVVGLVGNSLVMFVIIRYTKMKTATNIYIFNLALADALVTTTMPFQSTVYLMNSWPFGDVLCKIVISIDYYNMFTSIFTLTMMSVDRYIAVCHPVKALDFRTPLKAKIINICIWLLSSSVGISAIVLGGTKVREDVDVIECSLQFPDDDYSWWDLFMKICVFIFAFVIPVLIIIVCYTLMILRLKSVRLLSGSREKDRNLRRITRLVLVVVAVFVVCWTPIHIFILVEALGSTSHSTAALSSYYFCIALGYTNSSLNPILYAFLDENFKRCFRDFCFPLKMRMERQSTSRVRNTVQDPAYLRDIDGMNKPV

Regarding `CCCN(CCC)C(=O)[C@@H](Cc1c[nH]c2ccccc12)NC(=O)[C@H](CCCNC(=N)N)NC(=O)[C@@H](Cc1ccccc1)NC(=O)[C@H](Cc1c[nH]cn1)NC(=O)CNC(=O)c1ccccc1` [Peptide 4] (Bz-GH[dF]R[dW]-NPr2), the EC50 in experiment [1] (eight concentrations, 0.01 to 100,000 nM) is above 100 µM; in experiment [2] it was above 100 µM; in experiment [3] it was above 100 µM; in experiment [4], above 100 µM. Further, the “Activation of MC5R” value in experiment [1] (up to 100 µM) is recorded as “no significant activation”. Also, the “Maximal induction of MITF protein expression vs vehicle” value in experiment [5] is recorded as 79%.
